From ChEMBL document CHEMBL4507282, “Data for DCP probe BI-1950” (2021)
Active and inactive are the calls of the source. No cut-off for these calls is given here.

What was measured:
[1] = test system: Tyrosine-protein kinase ABL1 (Homo sapiens), P00519 [T315I]; details: Compound concentration 1000.0 nM
[2] = biological target: Inhibitor of nuclear factor kappa-B kinase subunit alpha (Homo sapiens) (UniProt O15111); details: Compound concentration 1000.0 nM
[3] = biological target: Serine/threonine-protein kinase PAK 6 (Homo sapiens) (UniProt Q9NQU5); details: Compound concentration 1000.0 nM
[4] = biological target: Macrophage colony-stimulating factor 1 receptor (Homo sapiens) (UniProt P07333); details: Compound concentration 1000.0 nM
[5] = biological target: Mitogen-activated protein kinase kinase kinase kinase 5 (Homo sapiens) (UniProt Q9Y4K4); details: Compound concentration 1000.0 nM
[6] = biological target: Serine/threonine-protein kinase 32A (Homo sapiens) (UniProt Q8WU08); details: Compound concentration 1000.0 nM
[7] = biological target: Homeodomain-interacting protein kinase 3 (Homo sapiens) (UniProt Q9H422); details: Compound concentration 1000.0 nM
[8] = biological target: Serine/threonine-protein kinase NIM1 (Homo sapiens) (UniProt Q8IY84); details: Compound concentration 1000.0 nM
[9] = biological target: Microtubule-associated serine/threonine-protein kinase 1 (Homo sapiens) (UniProt Q9Y2H9); details: Compound concentration 1000.0 nM
[10] = biological target: Activated CDC42 kinase 1 (Homo sapiens) (UniProt Q07912); details: Compound concentration 1000.0 nM
[11] = biological target: Serine/threonine-protein kinase LATS1 (Homo sapiens) (UniProt O95835); details: Compound concentration 1000.0 nM
[12] = test system: Epidermal growth factor receptor (Homo sapiens), P00533 [G719C]; details: Compound concentration 1000.0 nM
[13] = biological target: Serine/threonine-protein kinase SIK2 (Homo sapiens) (UniProt Q9H0K1); details: Compound concentration 1000.0 nM
Integrin alpha-L = Integrin alpha-L (Homo sapiens, UniProt P20701); test: ITGAL binding assay
[14] = test system: Phosphatidylinositol 4,5-bisphosphate 3-kinase catalytic subunit alpha isoform (Homo sapiens), P42336 [Q546K]; details: Compound concentration 1000.0 nM
[15] = biological target: 1-phosphatidylinositol 3-phosphate 5-kinase (Homo sapiens) (UniProt Q9Y2I7); details: Compound concentration 1000.0 nM
[16] = test system: Tyrosine-protein kinase ABL1 (Homo sapiens), P00519 [T315I]; details: Compound concentration 1000.0 nM; remark: listed apart in the source
[17] = biological target: Serine/threonine-protein kinase MAK (Homo sapiens) (UniProt P20794); details: Compound concentration 1000.0 nM
[18] = biological target: Macrophage-stimulating protein receptor (Homo sapiens) (UniProt Q04912); details: Compound concentration 1000.0 nM
[19] = biological target: Serine/threonine-protein kinase N2 (Homo sapiens) (UniProt Q16513); details: Compound concentration 1000.0 nM
[20] = biological target: Ribosomal protein S6 kinase alpha-5 (Homo sapiens) (UniProt O75582); details: Compound concentration 1000.0 nM
[21] = biological target: Cyclin-dependent kinase 17 (Homo sapiens) (UniProt Q00537); details: Compound concentration 1000.0 nM
[22] = biological target: Fibroblast growth factor receptor 2 (Homo sapiens) (UniProt P21802); details: Compound concentration 1000.0 nM
[23] = biological target: Mitogen-activated protein kinase 3 (Homo sapiens) (UniProt P27361); details: Compound concentration 1000.0 nM
[24] = test system: Tyrosine-protein kinase ABL1 (Homo sapiens), P00519 [F317L]; details: Compound concentration 1000.0 nM
[25] = biological target: Macrophage colony-stimulating factor 1 receptor (Homo sapiens) (UniProt P07333); details: Compound concentration 1000.0 nM; remark: listed apart in the source
[26] = biological target: Wee1-like protein kinase 2 (Homo sapiens) (UniProt P0C1S8); details: Compound concentration 1000.0 nM
[27] = biological target: Tyrosine-protein kinase JAK1 (Homo sapiens) (UniProt P23458); details: Compound concentration 1000.0 nM
[28] = biological target: Aurora kinase A (Homo sapiens) (UniProt O14965); details: Compound concentration 1000.0 nM
[29] = biological target: Mitogen-activated protein kinase 7 (Homo sapiens) (UniProt Q13164); details: Compound concentration 1000.0 nM
[30] = biological target: Ephrin type-A receptor 7 (Homo sapiens) (UniProt Q15375); details: Compound concentration 1000.0 nM
[31] = biological target: Serine/threonine-protein kinase STK11 (Homo sapiens) (UniProt Q15831); details: Compound concentration 1000.0 nM
[32] = biological target: Casein kinase II subunit alpha (Homo sapiens) (UniProt P68400); details: Compound concentration 1000.0 nM
[33] = biological target: Serine/threonine-protein kinase MRCK alpha (Homo sapiens) (UniProt Q5VT25); details: Compound concentration 1000.0 nM
[34] = biological target: Rhodopsin kinase GRK1 (Homo sapiens) (UniProt Q15835); details: Compound concentration 1000.0 nM
[35] = biological target: Cyclin-dependent kinase 2 (Homo sapiens) (UniProt P24941); details: Compound concentration 1000.0 nM
[36] = biological target: Bone morphogenetic protein receptor type-1B (Homo sapiens) (UniProt O00238); details: Compound concentration 1000.0 nM
[37] = biological target: Tyrosine-protein kinase JAK1 (Homo sapiens) (UniProt P23458); details: Compound concentration 1000.0 nM; remark: listed apart in the source
[38] = biological target: Protein kinase C delta type (Homo sapiens) (UniProt Q05655); details: Compound concentration 1000.0 nM
[39] = biological target: Serine/threonine-protein kinase TAO2 (Homo sapiens) (UniProt Q9UL54); details: Compound concentration 1000.0 nM
[40] = biological target: Membrane-associated tyrosine- and threonine-specific cdc2-inhibitory kinase (Homo sapiens) (UniProt Q99640); details: Compound concentration 1000.0 nM
[41] = biological target: Mitotic checkpoint serine/threonine-protein kinase BUB1 (Homo sapiens) (UniProt O43683); details: Compound concentration 1000.0 nM
[42] = biological target: LIM domain kinase 2 (Homo sapiens) (UniProt P53671); details: Compound concentration 1000.0 nM
[43] = biological target: Serine/threonine-protein kinase Nek9 (Homo sapiens) (UniProt Q8TD19); details: Compound concentration 1000.0 nM
[44] = biological target: Serine/threonine-protein kinase pim-2 (Homo sapiens) (UniProt Q9P1W9); details: Compound concentration 1000.0 nM
[45] = biological target: BMP-2-inducible protein kinase (Homo sapiens) (UniProt Q9NSY1); details: Compound concentration 1000.0 nM

Sequence of Tyrosine-protein kinase JAK1 (Homo sapiens) (P23458 whole entry): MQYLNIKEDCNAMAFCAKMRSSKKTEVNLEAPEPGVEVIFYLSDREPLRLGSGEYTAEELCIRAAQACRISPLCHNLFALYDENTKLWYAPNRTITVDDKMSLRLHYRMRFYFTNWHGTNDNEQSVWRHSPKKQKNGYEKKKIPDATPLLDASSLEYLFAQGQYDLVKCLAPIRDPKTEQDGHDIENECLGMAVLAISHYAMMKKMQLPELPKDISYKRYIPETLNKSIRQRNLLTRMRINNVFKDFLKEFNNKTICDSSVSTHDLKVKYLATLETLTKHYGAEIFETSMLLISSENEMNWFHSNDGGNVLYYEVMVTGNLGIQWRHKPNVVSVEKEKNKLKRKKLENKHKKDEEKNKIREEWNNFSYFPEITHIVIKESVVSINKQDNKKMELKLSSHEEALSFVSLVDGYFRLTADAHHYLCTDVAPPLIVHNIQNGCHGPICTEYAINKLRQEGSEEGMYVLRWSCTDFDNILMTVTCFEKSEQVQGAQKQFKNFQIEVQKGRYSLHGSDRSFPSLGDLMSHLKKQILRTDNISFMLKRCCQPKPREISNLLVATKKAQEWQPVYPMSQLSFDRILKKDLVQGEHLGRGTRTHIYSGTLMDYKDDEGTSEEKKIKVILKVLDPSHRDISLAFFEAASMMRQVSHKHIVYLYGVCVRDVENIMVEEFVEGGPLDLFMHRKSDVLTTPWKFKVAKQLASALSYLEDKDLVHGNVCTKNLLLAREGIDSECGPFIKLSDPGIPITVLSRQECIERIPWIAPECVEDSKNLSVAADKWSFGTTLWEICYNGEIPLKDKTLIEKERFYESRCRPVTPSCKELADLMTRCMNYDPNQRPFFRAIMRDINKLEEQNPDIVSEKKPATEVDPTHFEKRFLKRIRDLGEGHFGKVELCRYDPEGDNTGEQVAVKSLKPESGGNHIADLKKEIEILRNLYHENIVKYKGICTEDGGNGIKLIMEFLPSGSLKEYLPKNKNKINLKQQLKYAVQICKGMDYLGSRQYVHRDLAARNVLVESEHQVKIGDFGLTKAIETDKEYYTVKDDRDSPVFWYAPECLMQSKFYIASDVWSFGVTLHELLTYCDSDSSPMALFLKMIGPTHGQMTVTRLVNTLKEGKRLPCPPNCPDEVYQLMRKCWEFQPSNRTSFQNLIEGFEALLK
Sequence of Macrophage colony-stimulating factor 1 receptor (Homo sapiens) (P07333 whole entry): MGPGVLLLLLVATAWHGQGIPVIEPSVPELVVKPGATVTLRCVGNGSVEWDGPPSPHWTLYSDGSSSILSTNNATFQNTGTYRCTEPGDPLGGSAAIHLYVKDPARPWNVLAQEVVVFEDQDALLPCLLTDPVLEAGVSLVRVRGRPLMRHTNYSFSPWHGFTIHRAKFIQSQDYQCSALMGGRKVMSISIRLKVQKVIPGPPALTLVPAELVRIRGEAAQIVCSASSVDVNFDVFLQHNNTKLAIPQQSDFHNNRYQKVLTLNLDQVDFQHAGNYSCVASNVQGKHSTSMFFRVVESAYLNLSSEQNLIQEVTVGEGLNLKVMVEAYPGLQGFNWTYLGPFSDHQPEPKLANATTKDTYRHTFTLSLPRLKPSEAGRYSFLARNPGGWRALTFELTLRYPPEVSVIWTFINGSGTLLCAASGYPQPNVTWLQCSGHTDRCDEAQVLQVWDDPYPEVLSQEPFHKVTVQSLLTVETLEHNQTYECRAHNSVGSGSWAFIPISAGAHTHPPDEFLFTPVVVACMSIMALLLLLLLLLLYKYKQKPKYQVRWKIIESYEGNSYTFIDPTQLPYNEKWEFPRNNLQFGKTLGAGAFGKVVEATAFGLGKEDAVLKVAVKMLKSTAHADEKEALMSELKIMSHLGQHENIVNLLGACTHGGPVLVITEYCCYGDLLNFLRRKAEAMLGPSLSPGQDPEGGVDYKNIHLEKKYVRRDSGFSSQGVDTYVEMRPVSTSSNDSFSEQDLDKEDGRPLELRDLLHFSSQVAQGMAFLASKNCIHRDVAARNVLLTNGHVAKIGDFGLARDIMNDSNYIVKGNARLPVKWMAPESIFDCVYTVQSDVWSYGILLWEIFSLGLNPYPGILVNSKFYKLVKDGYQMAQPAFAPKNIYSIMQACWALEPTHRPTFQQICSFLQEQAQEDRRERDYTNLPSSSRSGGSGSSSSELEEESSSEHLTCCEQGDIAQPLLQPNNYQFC
Sequence of 1-phosphatidylinositol 3-phosphate 5-kinase (Homo sapiens) (Q9Y2I7 whole entry): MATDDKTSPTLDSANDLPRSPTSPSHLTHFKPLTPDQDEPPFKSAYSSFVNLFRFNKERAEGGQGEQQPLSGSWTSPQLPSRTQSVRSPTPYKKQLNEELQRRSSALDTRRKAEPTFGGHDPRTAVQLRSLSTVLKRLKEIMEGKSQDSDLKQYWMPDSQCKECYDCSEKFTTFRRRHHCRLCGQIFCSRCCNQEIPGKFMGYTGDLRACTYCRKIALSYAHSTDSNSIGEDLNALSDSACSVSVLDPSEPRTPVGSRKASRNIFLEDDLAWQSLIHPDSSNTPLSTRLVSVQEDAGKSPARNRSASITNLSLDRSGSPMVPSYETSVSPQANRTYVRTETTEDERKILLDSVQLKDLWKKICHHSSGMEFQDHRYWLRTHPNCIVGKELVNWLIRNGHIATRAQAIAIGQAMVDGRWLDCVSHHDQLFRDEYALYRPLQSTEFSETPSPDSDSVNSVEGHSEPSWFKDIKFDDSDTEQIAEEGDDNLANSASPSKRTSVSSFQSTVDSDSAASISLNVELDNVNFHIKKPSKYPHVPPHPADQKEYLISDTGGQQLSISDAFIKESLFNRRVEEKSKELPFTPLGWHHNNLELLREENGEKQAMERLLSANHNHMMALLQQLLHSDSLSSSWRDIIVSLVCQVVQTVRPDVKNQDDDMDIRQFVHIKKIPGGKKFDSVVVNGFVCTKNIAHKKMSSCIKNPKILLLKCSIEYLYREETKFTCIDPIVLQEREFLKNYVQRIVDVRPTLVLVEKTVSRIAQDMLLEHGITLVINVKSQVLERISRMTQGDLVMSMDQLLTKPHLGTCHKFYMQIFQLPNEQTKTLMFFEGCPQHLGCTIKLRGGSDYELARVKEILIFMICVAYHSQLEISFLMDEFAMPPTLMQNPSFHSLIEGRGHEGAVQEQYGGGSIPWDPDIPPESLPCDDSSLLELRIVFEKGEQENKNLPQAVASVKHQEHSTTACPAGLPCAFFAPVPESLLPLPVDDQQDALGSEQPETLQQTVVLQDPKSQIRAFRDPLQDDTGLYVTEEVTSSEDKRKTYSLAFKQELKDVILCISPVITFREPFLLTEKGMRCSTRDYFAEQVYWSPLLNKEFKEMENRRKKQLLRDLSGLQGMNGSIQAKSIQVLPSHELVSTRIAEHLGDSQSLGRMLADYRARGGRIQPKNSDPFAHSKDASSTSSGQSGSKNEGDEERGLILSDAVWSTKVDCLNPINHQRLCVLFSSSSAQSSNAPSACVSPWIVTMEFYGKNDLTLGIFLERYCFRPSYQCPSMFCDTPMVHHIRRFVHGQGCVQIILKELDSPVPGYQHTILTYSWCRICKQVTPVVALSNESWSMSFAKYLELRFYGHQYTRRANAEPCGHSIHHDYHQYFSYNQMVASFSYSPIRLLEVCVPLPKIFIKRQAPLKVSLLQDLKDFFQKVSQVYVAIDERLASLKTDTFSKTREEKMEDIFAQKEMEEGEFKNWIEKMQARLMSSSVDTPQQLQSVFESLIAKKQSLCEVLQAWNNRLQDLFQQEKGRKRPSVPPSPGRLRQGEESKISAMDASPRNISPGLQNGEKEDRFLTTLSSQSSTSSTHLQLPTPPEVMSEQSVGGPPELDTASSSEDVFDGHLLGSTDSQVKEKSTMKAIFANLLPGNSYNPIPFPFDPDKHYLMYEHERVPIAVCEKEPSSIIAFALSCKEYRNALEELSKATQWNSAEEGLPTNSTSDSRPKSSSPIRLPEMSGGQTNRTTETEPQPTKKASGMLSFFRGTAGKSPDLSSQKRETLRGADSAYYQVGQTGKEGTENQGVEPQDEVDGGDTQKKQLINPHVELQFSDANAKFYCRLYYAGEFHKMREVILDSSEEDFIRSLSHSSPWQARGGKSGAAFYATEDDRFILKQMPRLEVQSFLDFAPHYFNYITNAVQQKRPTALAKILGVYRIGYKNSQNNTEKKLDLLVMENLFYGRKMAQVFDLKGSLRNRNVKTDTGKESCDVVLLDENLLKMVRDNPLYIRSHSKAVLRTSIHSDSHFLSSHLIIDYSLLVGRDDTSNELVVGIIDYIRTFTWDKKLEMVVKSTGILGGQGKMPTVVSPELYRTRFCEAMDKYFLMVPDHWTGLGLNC
Sequence of Rhodopsin kinase GRK1 (Homo sapiens) (Q15835 whole entry): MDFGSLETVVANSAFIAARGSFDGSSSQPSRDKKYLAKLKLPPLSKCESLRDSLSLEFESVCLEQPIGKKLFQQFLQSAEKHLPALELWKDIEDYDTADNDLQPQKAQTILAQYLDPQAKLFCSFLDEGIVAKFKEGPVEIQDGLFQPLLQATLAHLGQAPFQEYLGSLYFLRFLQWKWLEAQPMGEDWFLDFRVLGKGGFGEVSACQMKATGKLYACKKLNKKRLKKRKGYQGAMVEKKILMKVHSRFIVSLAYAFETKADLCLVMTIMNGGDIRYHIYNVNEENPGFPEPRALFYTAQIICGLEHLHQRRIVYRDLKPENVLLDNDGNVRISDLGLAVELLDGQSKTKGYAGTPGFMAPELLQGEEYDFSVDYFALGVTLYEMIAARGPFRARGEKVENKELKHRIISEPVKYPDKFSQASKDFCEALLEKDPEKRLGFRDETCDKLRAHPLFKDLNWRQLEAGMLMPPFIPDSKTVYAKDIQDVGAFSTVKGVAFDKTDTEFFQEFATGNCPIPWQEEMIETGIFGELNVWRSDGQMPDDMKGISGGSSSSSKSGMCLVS
Sequence of Serine/threonine-protein kinase pim-2 (Homo sapiens) (Q9P1W9 whole entry, looked up): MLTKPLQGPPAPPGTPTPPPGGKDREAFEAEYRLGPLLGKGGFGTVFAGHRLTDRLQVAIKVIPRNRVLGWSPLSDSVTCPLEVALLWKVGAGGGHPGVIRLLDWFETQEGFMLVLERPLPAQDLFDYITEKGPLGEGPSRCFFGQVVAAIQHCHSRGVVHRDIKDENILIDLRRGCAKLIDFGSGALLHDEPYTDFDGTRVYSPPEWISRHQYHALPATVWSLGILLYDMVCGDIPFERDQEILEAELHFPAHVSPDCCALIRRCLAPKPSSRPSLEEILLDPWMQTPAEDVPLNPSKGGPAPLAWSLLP

C[C@H](NC(=O)c1cnc2n1[C@](C)(Cc1ccc(C#N)cc1)C(=O)N2c1cc(Cl)c(F)c(Cl)c1)C(=O)NC1(c2ccccn2)CC1 [BI 1950] showed a residual activity [1] of 100%, a residual activity [2] of 100% and a residual activity [3] of 96%. It also gave a residual activity [4] of 100%, a residual activity [5] of 94% and a residual activity [6] of 83%. For the same molecule, the residual activity [7] was 100%, the residual activity [8] was 100% and the residual activity [9] was 100%. For the same molecule, the residual activity [10] was 94%, the residual activity [11] was 100% and the residual activity [12] was 100%. For the same molecule, the residual activity [13] was 100%, the Kd (Integrin alpha-L) was 9 nM (active) and the residual activity [14] was 97%. It also gave a residual activity [15] of 100%, a residual activity [16] of 85% and a residual activity [17] of 100%. For the same molecule, the residual activity [18] was 100%, the residual activity [19] was 63% and the residual activity [20] was 100%. The residual activity [21] was 100%, the residual activity [22] was 100% and the residual activity [23] was 91%. It also gave a residual activity [24] of 98%, a residual activity [25] of 100% and a residual activity [26] of 100%. For the same molecule, the residual activity [27] was 100%, the residual activity [28] was 100% and the residual activity [29] was 100%. It also gave a residual activity [30] of 84%, a residual activity [31] of 100% and a residual activity [32] of 81%. It also gave a residual activity [33] of 100%, a residual activity [34] of 100% and a residual activity [35] of 100%. For the same molecule, the residual activity [36] was 99%, the residual activity [37] was 100% and the residual activity [38] was 100%. The residual activity [39] was 92%, the residual activity [40] was 79% and the residual activity [41] was 100%. It also gave a residual activity [42] of 100%, a residual activity [43] of 100% and a residual activity [44] of 100%. The residual activity [45] was 100%.

Work on C[C@@]1(Cc2ccc(C#N)cc2)C(=O)N(c2cc(Cl)cc(Cl)c2)c2ncc(C(=O)NC3(c4nc(C5CCC5)no4)CC3)n21 [BI 9446] yielded a residual activity [1] of 100%, a residual activity [2] of 100% and a residual activity [3] of 100%. The residual activity [4] was 100%, the residual activity [5] was 93% and the residual activity [6] was 100%. The residual activity [7] was 100%, the residual activity [8] was 100% and the residual activity [9] was 100%. It also gave a residual activity [10] of 86%, a residual activity [11] of 96% and a residual activity [12] of 100%. For the same molecule, the residual activity [13] was 100%, the Kd (Integrin alpha-L) was > 1000 nM (not active) and the residual activity [14] was 88%. It also gave a residual activity [15] of 100%, a residual activity [16] of 100% and a residual activity [17] of 100%. For the same molecule, the residual activity [18] was 100%, the residual activity [19] was 100% and the residual activity [20] was 100%. It also gave a residual activity [21] of 100%, a residual activity [22] of 100% and a residual activity [23] of 86%. It also gave a residual activity [24] of 100%, a residual activity [25] of 100% and a residual activity [26] of 100%. For the same molecule, the residual activity [27] was 100%, the residual activity [28] was 92% and the residual activity [29] was 100%. The residual activity [30] was 92%, the residual activity [31] was 100% and the residual activity [32] was 91%. It also gave a residual activity [33] of 100%, a residual activity [34] of 100% and a residual activity [35] of 100%. The residual activity [36] was 100%, the residual activity [37] was 100% and the residual activity [38] was 100%. For the same molecule, the residual activity [39] was 100%, the residual activity [40] was 75% and the residual activity [41] was 100%. The residual activity [42] was 100%, the residual activity [43] was 86% and the residual activity [44] was 98%. The residual activity [45] was 100%.
